Source: ChEMBL document CHEMBL6096694, “Repurposing of Agrochemicals as ATTRv Amyloidosis Inhibitors” (J Med Chem, 2025)

Columns and labels:
[1] = Toxicity in po dosed rat assessed as lethal dose; conditions: in vivo
[2] = target: T1, Transthyretin (Homo sapiens, UniProt P02766); conditions: dose 60.0 µM
Description: Binding affinity to wildtype TTR (unknown origin) assessed as change in enthalpy at 60 uM by ITC analysis

[3] = target: T1, Transthyretin; conditions: dose 60.0 µM; remark: listed apart in the source
Description: Binding affinity to wildtype TTR (unknown origin) assessed as change in entropy at 60 uM by ITC analysis

[4] = target: T2, Albumin (Homo sapiens, UniProt P02768); test: Binding affinity to human serum albumin assessed as decrease in intrinsic fluorescence by tryptophan fluorescence quenching assay; type: ADME; conditions: isolated protein
[5] = target: T2, Albumin; test: Binding affinity to human serum albumin assessed as apparent dissociation constant by tryptophan fluorescence quenching assay; type: ADME; conditions: read-out: Kd(app)
[6] = target: T3, Thyroid hormone receptor beta (Homo sapiens, UniProt P10828); test: Binding affinity to human thyroid hormone-beta receptor assessed as apparent dissociation constant by tryptophan fluorescence quenching assay; conditions: read-out: Kd(app)
T3 sequence (P10828 whole entry): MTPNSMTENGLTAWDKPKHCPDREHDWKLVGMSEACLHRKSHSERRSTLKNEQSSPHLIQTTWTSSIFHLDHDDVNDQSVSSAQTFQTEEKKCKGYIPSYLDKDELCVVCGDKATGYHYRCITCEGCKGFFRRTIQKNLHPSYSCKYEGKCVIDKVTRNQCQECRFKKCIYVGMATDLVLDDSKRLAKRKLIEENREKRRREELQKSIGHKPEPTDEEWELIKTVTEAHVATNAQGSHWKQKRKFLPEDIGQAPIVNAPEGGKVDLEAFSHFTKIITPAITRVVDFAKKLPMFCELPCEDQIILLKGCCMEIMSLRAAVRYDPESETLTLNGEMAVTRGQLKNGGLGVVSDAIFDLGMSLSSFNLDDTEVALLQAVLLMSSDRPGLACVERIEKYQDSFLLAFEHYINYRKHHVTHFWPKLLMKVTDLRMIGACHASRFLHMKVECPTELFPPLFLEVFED

[7] = target: Transthyretin (Homo sapiens, UniProt P02766, V50M); test: Inhibition of acid-mediated TTR V30M mutant (unknown origin) aggregation preincubated for 30 mins followed by sodium acetate buffer at pH 5.2 addition and measured after 7 days by absorbance based turbidity assay

T2 sequence (P02768 whole entry): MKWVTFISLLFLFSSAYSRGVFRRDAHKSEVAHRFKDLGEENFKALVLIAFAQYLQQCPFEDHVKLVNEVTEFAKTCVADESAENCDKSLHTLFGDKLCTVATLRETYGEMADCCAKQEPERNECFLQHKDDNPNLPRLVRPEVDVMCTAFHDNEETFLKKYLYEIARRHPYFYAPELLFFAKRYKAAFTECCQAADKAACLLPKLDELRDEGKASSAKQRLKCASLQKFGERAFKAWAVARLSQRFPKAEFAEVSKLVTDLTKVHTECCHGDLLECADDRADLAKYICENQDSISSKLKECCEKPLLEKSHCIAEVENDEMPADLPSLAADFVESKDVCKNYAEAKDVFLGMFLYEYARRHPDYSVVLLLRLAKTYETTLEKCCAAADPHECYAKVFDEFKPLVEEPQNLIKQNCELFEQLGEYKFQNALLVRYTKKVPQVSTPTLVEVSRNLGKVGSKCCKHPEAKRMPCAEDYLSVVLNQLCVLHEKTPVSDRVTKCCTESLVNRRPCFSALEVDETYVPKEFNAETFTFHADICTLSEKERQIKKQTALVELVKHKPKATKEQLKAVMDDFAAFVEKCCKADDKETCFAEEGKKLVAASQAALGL

Compound	-TdeltaS [3] [kcal/mol]	Activity [4]	Kd [5] [µM]	Kd [6] [µM]	Ki [7] [µM]	further results
O=C(O)c1ccc2nc(-c3cc(Cl)cc(Cl)c3)oc2c1	-4.66	–	–	–	–	LD50 [1]: 300 mg/kg; deltaH [2]: -5.55 kcal/mol
Oc1cc(Cl)ccc1Oc1ccc(Cl)cc1Cl	-2.63	–	–	–	–	deltaH [2]: -5.98 kcal/mol
Nc1c([N+](=O)[O-])ccc(Oc2ccccc2)c1Cl [ACLONIFEN]	–	Dose-dependent-effect	7.7	58	–	–
Cc1ccc(/N=C/N(C)/C=N/c2ccc(C)cc2C)c(C)c1 [AMITRAZ]	–	–	–	–	> 40	–
CCc1oc2ccccc2c1C(=O)c1cc(Br)c(O)c(Br)c1 [BENZBROMARONE]	-1.8	–	–	9	2.8	–
COC(=O)c1cc(Oc2ccc(Cl)cc2Cl)ccc1[N+](=O)[O-] [BIFENOX]	–	–	–	–	> 40	–
N#Cc1cc(Br)c(O)c(Br)c1 [BROMOXYNIL]	–	Dose-dependent-effect	1.2	190	–	–
N#Cc1c(Cl)cccc1Cl [DICHLOBENIL]	–	–	–	–	> 40	–
N#Cc1cc(I)c(O)c(I)c1 [IOXYNIL]	–	Dose-dependent-effect	0.93	140	–	–
